Converted amounts (≈) assume the structure as drawn. Like-named read-outs stand apart in the source and are kept apart here.
Tests used:
M. tuberculosis H37Rv [1] = test: microbe, parasite or virus in culture; assay type: cell-based, Mycobacterium tuberculosis; details: for MIC90: Mycobacterium tuberculosis, H37RV, read-out: MIC90 MtbH37Rv
[2] = test system: M. marinum infected zebrafish larvae; test: Zebrafish larvae model of M. marinum infection; assay type: in vivo; details: caudal vein microinjection, ca. 6–8 ng, by tendency
[3] = in words; cited from earlier work
[4] = introduction, earlier work; cited from earlier work
M. tuberculosis H37Rv [5] = details: activity already reported, cited from earlier work
M. abscessus Bamboo = test: MIC by broth microdilution, NTM; details: especially against M. abscessus Bamboo; weak
[6] = Metabolic stability in human liver microsomes; assay type: in vitro ADME; details: 60 min incubation
H37Rv = test: MIC by micro-broth dilution method, Mtb panel; assay type: cell-based, Mycobacterium tuberculosis; details: strain H37Rv
Ty1 (Rv3405c, c190t) = test: MIC by micro-broth dilution method, Mtb panel; assay type: cell-based; details: Mycobacterium tuberculosis
81.10 (ethA, Δ1109–37) = assay type: cell-based; details: strain 81.10 (ethA, Δ1109–37)

Compound | MIC90 (M. tuberculosis H37Rv [1]) | other results
Cc1ccc(Nc2nc(-c3cc(C(=O)Nc4ccccc4)no3)cs2)cc1 [Compound 3] | 2.7 µM | granuloma formation [2]: granuloma formation was slightly less pronounced than in the untreated control group; reactivity to glutathione [3]: ruling out the possibility of indiscriminate reactivity toward biological nucleophiles
Cc1ccc(Nc2nc(-c3cc(C(=O)Nc4ccccn4)no3)cs2)cc1 [Compound 4] | 1.3 µM | half-life in human liver microsomes (HLM) [4]: 35 ± 0.8 min; reactivity to glutathione [3]: ruling out the possibility of indiscriminate reactivity toward biological nucleophiles
Cc1ccc(Nc2nc(-c3cc(C(=O)Nc4ccc(F)cc4)no3)cs2)cc1 [Compound 9a] | 2.5 µM | 
Cc1ccc(Nc2nc(-c3cc(C(=O)Nc4cccc(F)c4)no3)cs2)cc1 [Compound 10a] | 6.3 µM | 
Cc1ccc(Nc2nc(-c3cc(C(=O)Nc4ccccc4F)no3)cs2)cc1 [Compound 11a] | 2.5 µM | 
Cc1ccc(NC(=O)c2cc(-c3csc(Nc4ccc(C)cc4)n3)on2)cc1 [Compound 14a] | 2.6 µM | 
Cc1ccc(Nc2nc(-c3cc(C(=O)Nc4cccc(C)c4)no3)cs2)cc1 [Compound 15a] | 1.3 µM | 
Cc1ccc(Nc2nc(-c3cc(C(=O)Nc4ccccc4C)no3)cs2)cc1 [Compound 16a] | 2.5 µM | 
Cc1ccc(Nc2nc(-c3cc(C(=O)Nc4ccc(O)cc4)no3)cs2)cc1 [Compound 20a] | 1.3 µM | 
Cc1ccc(Nc2nc(-c3cc(C(=O)Nc4ccc(O)cc4)no3)cs2)cc1O [Compound 20e] | 12.2 µM | 
Cc1ccc(Nc2nc(-c3cc(C(=O)Nc4cccc(O)c4)no3)cs2)cc1 [Compound 21a] | 1.3 µM | 
Cc1ccc(Nc2nc(-c3cc(C(=O)Nc4ccccc4O)no3)cs2)cc1 [Compound 22a] | 1.3 µM | 
Cc1ccc(Nc2nc(-c3cc(C(=O)Nc4ccncc4)no3)cs2)cc1 [Compound 23a] | 2.6 µM | 
Cc1ccc(Nc2nc(-c3cc(C(=O)Nc4cccnc4)no3)cs2)cc1 [Compound 24a] | 26 µM | 
Cc1ccc(Nc2nc(-c3cc(C(=O)Nc4cc(C)ccn4)no3)cs2)cc1 [Compound 27a] | 2.6 µM | 
Cc1ccc(Nc2nc(-c3cc(C(=O)Nc4ccsc4)no3)cs2)cc1 [Compound 32a] | 2.6 µM | 
O=C(Nc1ccccc1)c1cc(-c2csc(Nc3cc(Cl)cc(Cl)c3)n2)on1 [Compound 35b] |  | MIC90 MtbH37Rv (M. tuberculosis H37Rv [5]): >20 µg/mL
Cc1cc(C)cc(Nc2nc(-c3cc(C(=O)Nc4ccccc4)no3)cs2)c1 [Compound 35d] | 2.5 µM | 
O=C(Nc1ccccn1)c1cc(-c2csc(Nc3cc(Cl)cc(Cl)c3)n2)on1 [Compound 36b] |  | MIC90 MtbH37Rv (M. tuberculosis H37Rv [5]): >20 µg/mL
Cc1ccc(Nc2nc(-c3cc(C(=O)Nc4ccccc4)no3)cs2)cc1O [Compound 42e] | 6.3 µM | antitubercular whole cell activity in words (M. tuberculosis H37Rv [1]): retained a certain activity
O=C(Nc1ccccc1)c1cc(-c2csc(Nc3ccccc3)n2)on1 [Compound 42g] | 3.4 µM | inhibitory activity in words (M. abscessus Bamboo): concentration-dependent inhibitory activity
Nc1nc(-c2cc(C(=O)Nc3ccccc3)no2)cs1 [Compound 42i] |  | metabolic stability in HLM in words [6]: did not show any significant biotransformation
O=C(Nc1ccccc1)c1cc(-c2csc(Nc3cc(Cl)c(Cl)c(Cl)c3)n2)on1 [Compound 42j] |  | metabolic stability in HLM in words [6]: did not show any significant biotransformation

Compound | MIC90 (M. tuberculosis H37Rv [1]) | other results
O=C(Nc1ccccc1)c1cc(-c2csc(Nc3ccc(Cl)cc3)n2)on1 [Compound 42l] | 3.2 µM | 
O=C(Nc1ccccc1)c1cc(-c2csc(Nc3cccc(O)c3)n2)on1 [Compound 42m] | 13.2 µM | 
O=C(Nc1ccccc1)c1cc(-c2csc(Nc3ccc(CO)cc3)n2)on1 [Compound 42n, 5-(2-((4-(hydroxymethyl)phenyl)amino)thiazol-4-yl)-N-phenylisoxazole-3-carboxamide] |  | antitubercular whole cell activity in words (M. tuberculosis H37Rv [1]): no whole cell activity
Cc1ccc(Nc2nc(-c3cc(C(=O)Nc4ccccn4)no3)cs2)cc1O [Compound 43e] | 12.6 µM | antitubercular whole cell activity in words (M. tuberculosis H37Rv [1]): retained a certain activity
O=C(Nc1ccccn1)c1cc(-c2csc(Nc3ccccc3)n2)on1 [Compound 43g] |  | inhibitory activity in words (M. abscessus Bamboo): concentration-dependent inhibitory activity
Nc1nc(-c2cc(C(=O)Nc3ccccn3)no2)cs1 [Compound 43i] |  | metabolic stability in HLM in words [6]: did not show any significant biotransformation
O=C(Nc1ccccn1)c1cc(-c2csc(Nc3cc(Cl)c(Cl)c(Cl)c3)n2)on1 [Compound 43j] |  | metabolic stability in HLM in words [6]: did not show any significant biotransformation
O=C(Nc1ccccn1)c1cc(-c2csc(Nc3ccc(CO)cc3)n2)on1 [Compound 43n, 5-(2-((4-(hydroxymethyl)phenyl)amino)thiazol-4-yl)-N-(pyridin-2-yl)isoxazole-3-carboxamide] |  | antitubercular whole cell activity in words (M. tuberculosis H37Rv [1]): no whole cell activity
Cc1ccc(Nc2nc(-c3cc(C(=O)Nc4ccccc4)no3)co2)cc1 [Compound 47] | 2.8 µM | 
Cc1ccc(Nc2nc(-c3cc(C(=O)Nc4ccccn4)no3)co2)cc1 [Compound 48] |  | MIC90 MtbH37Rv (M. tuberculosis H37Rv [5]; value in brackets): 6.9 µM
CCOC(=O)c1cc(-c2cccc(Nc3ccc(C)cc3)n2)on1 [Compound 53, Ethyl 5-(6-(p-tolylamino)pyridin-2-yl)isoxazole-3-carboxylate] | 3.8 µM | 
O=C(Nc1ccccc1)c1cc(C(=O)Nc2nc3ccccc3s2)on1 [Compound 58a] | > 40 µg/mL | 
Cc1ccc2nc(NC(=O)c3cc(C(=O)Nc4ccccn4)no3)sc2c1 [Compound 58b] | > 40 µg/mL | 
O=C(Nc1ccccn1)c1cc(C(=O)Nc2nc3ccccc3s2)on1 [Compound 59a] | > 40 µg/mL | 
Cc1ccc2nc(NC(=O)c3cc(C(=O)Nc4ccccc4)no3)sc2c1 [Compound 59b] | > 40 µg/mL | 
Cc1cccc(NC(=O)c2cc(C(=O)Nc3nc4ccccc4s3)on2)c1 [Compound 60a] | > 40 µg/mL | 
Cc1cccc(NC(=O)c2cc(C(=O)Nc3nc4ccc(C)cc4s3)on2)c1 [Compound 60b] | > 40 µg/mL | 
COc1ccc2sc(NC(=O)c3cc(C(=O)Nc4cccc(C)c4)no3)nc2c1 [Compound 60c] | > 40 µg/mL | 
O=C(Nc1ccc(O)cc1)c1cc(C(=O)Nc2nc3ccccc3s2)on1 [Compound 61a] | > 40 µg/mL | 
Cc1ccc2nc(NC(=O)c3cc(C(=O)Nc4ccc(O)cc4)no3)sc2c1 [Compound 61b] | > 40 µg/mL | 
O=C(Nc1cccc(F)c1)c1cc(C(=O)Nc2nc3ccccc3s2)on1 [Compound 62a] | > 40 µg/mL | 
O=C(Nc1cccc(O)c1)c1cc(C(=O)Nc2nc3ccccc3s2)on1 [Compound 63a] | > 40 µg/mL | 
NNC(=O)c1ccncc1 [INH, Isoniazide] |  | MIC90 MtbH37Rv (M. tuberculosis H37Rv [1]; REMA method, M. tuberculosis H37Rv): 0.025 µg/mL (≈ 0.182 µM); MIC90 (H37Rv): 0.025 µg/mL (≈ 0.182 µM); MIC90 (Ty1 (Rv3405c, c190t)): 0.025 µg/mL (≈ 0.182 µM); MIC90 (81.10 (ethA, Δ1109–37)): 0.025 µg/mL (≈ 0.182 µM)
